# Legend:
# [1] = tested on: Mus musculus; experiment: Sedative-hypnotic activity in Mus musculus (mouse) assessed as decrease in onset of phenobarbital-induced sleep at 19.6 to 42.6 mg/kg, ip incubated for 30 min prior to phenobarbital challenge relative to phenobarbital-treated mouse; format: functional; conditions: dose mg/kg 19.6-42.6; route intraperitoneal
# [2] = tested on: Mus musculus; experiment: Sedative-hypnotic activity in Mus musculus (mouse) assessed as increase in duration of phenobarbital-induced sleep at 19.6 to 42.6 mg/kg, ip incubated for 30 min prior to phenobarbital challenge relative to phenobarbital-treated mouse; format: functional; conditions: dose mg/kg 19.6-42.6; route intraperitoneal
Compound,Time [1] [min],Time [2] [min]
O=C1/C(=C\c2ccc(Cl)cc2)CCOc2ccc(Cl)cc21,15,105.5
O=C1c2cc(Cl)ccc2OCCC1CN1CCOCC1 (configuration not stated),40.8,75.25
CCC1(c2ccccc2)C(=O)NC(=O)N(C2CCOc3ccc(Cl)cc3C2=O)C1=O (configuration not stated),21.5,123.25
CN(C)CC1CCOc2ccc(Cl)cc2C1=O (configuration not stated),34,61.3
O=C1c2cc(Cl)ccc2OCCC1CN1CCN(c2ccccc2Cl)CC1 (configuration not stated),45.5,45.25
O=C1c2cc(Cl)ccc2OCCC1Br (configuration not stated),47,39.15
O=C1/C(=C\c2ccc(F)cc2)CCOc2ccc(Cl)cc21,16.5,103.15
O=C1CCCOc2ccc(Cl)cc21,34.5,59.5
CN1CCN(CC2CCOc3ccc(Cl)cc3C2=O)CC1 (configuration not stated),38.8,92.35
CCC1(c2ccccc2)C(=O)NC(=O)NC1=O [PHENOBARBITAL],46.8,100.5
O=C1/C(=C\c2ccccc2)CCOc2ccc(Cl)cc21,18,84.3
O=C1CC2CCOc3ccc(Cl)cc3C2=NN1c1ccc(Cl)cc1 (configuration not stated),49.5,42.15
COc1ccc(/C=C2/CCOc3ccc(Cl)cc3C2=O)cc1,17.6,79.4
COc1ccc(N2N=C3c4cc(Cl)ccc4OCCC3CC2=O)cc1 (configuration not stated),42.5,38.45
O=C1c2cc(Cl)ccc2OCCC1CN1CCCCC1 (configuration not stated),24.5,99.3
O=C1CC2CCOc3ccc(Cl)cc3C2=NN1c1ccccc1 (configuration not stated),20,100.15
